Experimental findings from patent publication US6521620B1, “Bicyclic compounds capable of inhibiting tyrosine kinases of the epidermal growth factor receptor family” (Warner-Lambert Company, priority 1994, dated 2003) are described below.

Data set [1] deals with T1, Human EGF receptor tyrosine kinase (Homo sapiens, UniProt P00533).
T1 construct: isolated from A431 human epidermoid carcinoma cells which overexpress EGF receptor; endogenous in cells; host or cells: A431 human epidermoid carcinoma cells; purified from the lysate on wheat germ agglutinin sepharose
T1 sequence (P00533 25-1210): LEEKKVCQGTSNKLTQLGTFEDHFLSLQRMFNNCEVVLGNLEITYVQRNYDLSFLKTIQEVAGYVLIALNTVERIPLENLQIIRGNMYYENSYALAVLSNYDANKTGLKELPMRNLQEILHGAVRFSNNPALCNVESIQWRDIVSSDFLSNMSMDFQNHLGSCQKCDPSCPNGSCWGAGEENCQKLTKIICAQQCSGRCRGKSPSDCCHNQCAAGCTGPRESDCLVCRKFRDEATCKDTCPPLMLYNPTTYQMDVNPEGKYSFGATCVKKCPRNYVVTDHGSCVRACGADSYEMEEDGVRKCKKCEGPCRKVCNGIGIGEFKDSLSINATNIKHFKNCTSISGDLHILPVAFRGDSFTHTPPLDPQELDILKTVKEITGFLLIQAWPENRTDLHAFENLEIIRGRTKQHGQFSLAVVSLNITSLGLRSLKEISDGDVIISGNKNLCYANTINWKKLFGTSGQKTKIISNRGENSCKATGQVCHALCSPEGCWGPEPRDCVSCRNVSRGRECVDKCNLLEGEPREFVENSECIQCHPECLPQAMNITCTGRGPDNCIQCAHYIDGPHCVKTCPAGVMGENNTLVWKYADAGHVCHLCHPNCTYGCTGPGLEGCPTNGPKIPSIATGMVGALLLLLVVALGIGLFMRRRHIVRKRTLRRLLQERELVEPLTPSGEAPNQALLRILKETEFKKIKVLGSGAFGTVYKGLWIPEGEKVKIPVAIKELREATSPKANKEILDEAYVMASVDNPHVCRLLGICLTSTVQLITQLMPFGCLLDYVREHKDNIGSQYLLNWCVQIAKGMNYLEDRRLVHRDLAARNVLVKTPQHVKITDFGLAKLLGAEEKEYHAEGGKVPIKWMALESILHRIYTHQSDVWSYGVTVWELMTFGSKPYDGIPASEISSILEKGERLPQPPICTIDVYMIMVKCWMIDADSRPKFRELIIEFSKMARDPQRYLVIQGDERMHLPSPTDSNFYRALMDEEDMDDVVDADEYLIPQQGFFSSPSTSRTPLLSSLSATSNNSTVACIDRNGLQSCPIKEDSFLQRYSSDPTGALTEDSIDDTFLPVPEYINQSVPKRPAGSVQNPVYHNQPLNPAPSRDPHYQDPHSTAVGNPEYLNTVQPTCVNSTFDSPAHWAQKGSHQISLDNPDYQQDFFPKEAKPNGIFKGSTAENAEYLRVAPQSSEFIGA
As to the kind of experiment: EGF receptor tyrosine kinase inhibition (phosphorylation of PLC-gamma 1 derived peptide). Type of data set: biochemical. The procedure:
Purification of Epidermal Growth Factor Receptor Tyrosine Kinase—Human EGF receptor tyrosine kinase was isolated from A431 human epidermoid carcinoma cells which overexpress EGF receptor by the following methods. Cells were grown in roller bottles in 50% Delbuco's Modified Eagle and 50% HAM F-12 nutrient media (Gibco) containing 10% fetal calf serum. Approximately 10^9 cells were lysed in two volumes of buffer containing 20 mM 2-(4N-[2-hydroxyethyl]piperazin-1-yl)ethanesulfonic acid (hepes), pH 7.4, 5 mM ethylene glycol bis(2-aminoethyl ether) N,N,N′,N′-tetraacetic acid, 1% Triton X-100, 10% glycerol, 0.1 mM sodium orthovanadate, 5 mM sodium fluoride, 4 mM pyrophosphate, 4 mM benzamide, 1 mM dithiothreitol, 80 μg/mL aprotinin, 40 μg/mL leupeptin and 1 mM phenylmethylsulfonyl fluoride. After centrifugation at 25,000×g for 10 minutes, the supernatant was equilibrated for 2 h at 4° C. with 10 mL of wheat germ agglutinin sepharose that was previously equilibrated with 50 mM Hepes, […], 0.1% Triton X-100 and 150 mM NaCl, pH 7.5, (equilibration buffer). Contaminating proteins were washed from the resin with 1 M NaCl in equilibration buffer, and the enzyme was eluted with 0.5 M N-acetyl-1-D-glucosamine in equilibration buffer, followed by 1 mM urea. The enzyme was eluted with 0.1 mg/ml EGF.
The reaction was terminated by the addition of 2 mL of […] phosphoric acid and passed through a 2.5 cm phosphocellulose filter disc to bind the peptide. The filter was washed five times with 75 mM phosphoric acid and placed in a vial along with 5 mL of scintillation fluid (Ready gel Beckman).

The next data set deals with erbB-2, 3, 4. As to the kind of experiment: Inhibition of conditioned media-induced autophosphorylation in SK-BR-3 breast tumor cells. The settings on record: SK-BR-3 cells, read-out: SKBR-3 IC50. The format is cell-based, human. The procedure: (§1) Cells were grown to 100% confluency in 100 mm Petrie dishes (Corning). After the cells were treated for 5 minutes with either EGF (epidermal growth factor), PDGF, or bFGF (basic fibroblast growth factor) (20 ng/ml) or 1 ml of conditioned media from MDA-MB-231 cells, the media was removed and the monolayer scraped into 1 ml of ice cold lysis buffer (50 mM Hepes, pH 7.5, 150 mM NaCl, 10% glycerol, 1% triton X-100, 1 mM EDTA, 1 mM EGTA, 10 mM sodium pyrophosphate, 30 mM p-nitrophenyl phosphate, 1 mM orthovanadate, 50 mM sodium fluoride, 1 mM phenylmethylsulfonylfluoride, 10 μg/ml of aprotinin, and 10 μg/ml of leupeptin). The lysate was transferred to a microfuge tube (small centrifuge that holds 1-2 ml plastic centrifuge tubes), allowed to sit on ice 15 minutes and centrifuged 5 minutes at 10,000×g. The supernatant was transferred to a clean microfuge tube and 5 μg of antibody was added to designated samples. The tubes were rotated for 2 hours at […] after which 25 μl of protein A sepharose was added and then rotation continued for at least 2 more hours. The protein A separose was washed 5 times with 50 mM Hepes, pH 7.5, 150 mM NaCl, 10% glycerol and 0.02% sodium azide. […] The extract were transferred to a microfuge tube and heated to 100° C. for 5 minutes. […] Proteins in the gel were electrophoretically transferred to nitrocellulose and the membrane was washed once in 10 mM Tris buffer, pH 7.2, 150 mM NaCl, 0.01% Azide (TNA) and blocked overnight in TNA containing 5% bovine serum albumin and 1% ovalbumin (blocking buffer). The membrane was blotted for 2 hours with the primary antibody (1 μg/ml in blocking buffer) and then washed 2 times sequentially in TNA, TNA containing 0.05% Tween-20 and 0.05% Nonidet P-40 (commercially available detergent) and TNA.

A further data set deals with T2, EGF receptor (Homo sapiens, UniProt P00533).
T2 construct: EGF receptor autophosphorylation in A431 human epidermoid carcinoma; endogenous in cells; host or cells: A431 human epidermoid carcinoma cells (ATCC)
T2 sequence (P00533 25-1210): as above
As to the kind of experiment: Inhibition of EGF-induced autophosphorylation in A431 epidermoid carcinoma cells. Type of data set: cell-based. On the procedure: as §1

Setting [2] is: Table 1, values in nM, read-out: EGF Receptor Tyrosine Kinase Inhibition IC50.
The mark [3] stands for this setting: Table 1, values printed in μM, read-out: EGF Receptor Tyrosine Kinase Inhibition IC50.
Setting [4] is: enzyme value repeated in the autophosphorylation table, read-out: EGFR IC50.

Structures can show the parent of a compound that is named as a salt. Where two headings read alike, the source gives them in different places. A value given as a limit tells only on which side of the number the result lay.

Compound `C[C@@H](Nc1ncnc2ccncc12)c1ccccc1` [Example 39, 4-([R]-1-Phenylethylamino)pyrido[4,3-d]pyrimidine] came in with a melting point of 138 to 138.5 °C. In data set [1] (setting [2]), the IC50 amounted to 590 nM.
For the compound `Nc1cc2ncnc(Nc3ccccc3C(F)(F)F)c2cn1` [Example 30, 7-Amino-4-(2-trifluoromethylanilino)pyrido[4,3-d]pyrimidine], the melting point was 126 to 130 °C (dec.). Moreover, the 50% inhibitory concentration (IC50) in data set [1] (setting [3]) was 10000 nM.
Turning to `COc1cc2c(Nc3cccc(Br)c3)ncnc2cn1` [Example 59, 4-(3-Bromoanilino)-6-methoxypyrido[3,4-d]pyrimidine], the IC50 was less than 10 nM with erbB-2, 3, 4; 2.6 nM in data set [1] (setting [2]); 2.6 nM in data set [1] (setting [4]); 12 nM at EGF receptor.
For the compound `Nc1cc2ncnc(Nc3cccc([N+](=O)[O-])c3)c2cn1` [Example 22, 7-Amino-4-(3-nitroanilino)pyrido[4,3-d]pyrimidine], the half-maximal inhibitory concentration (IC50) with erbB-2, 3, 4 was roughly 1500 nM; in data set [1] (setting [2]) it was 39 nM; in data set [1] (setting [4]), 39 nM; against EGF receptor, 252 nM.
For `C[C@@H](Nc1ncnc2cc(N)ncc12)c1ccccc1` [Example 41, 7-Amino-4-([R]-1-phenylethylamino)pyrido[4,3-d]pyrimidine], the melting point lay in the range of 231.8 to 232.1 °C. Also, the IC50 in data set [1] (setting [2]) is 220 nM.
In the case of `Nc1ccc2ncnc(Nc3cccc(Br)c3)c2n1` [Example 6, 4-(3-Bromoanilino)-6-aminopyrido[3,2-d]pyrimidine], the IC50 in the data set with erbB-2, 3, 4 was 2660 nM; in data set [1] (setting [2]), 7.6 nM; in data set [1] (setting [4]), 7.6 nM; against EGF receptor it was 53 nM.
As for `CC(=O)Nc1cc2ncnc(Nc3cccc(Br)c3)c2cn1` [Example 36, 7-Acetylamino-4-(3-bromoanilino)pyrido[4 3-d]pyrimidine], the IC50 in data set [1] (setting [2]) was 29 nM.
Regarding `CN(C)c1ccc2c(Nc3cccc(Br)c3)ncnc2n1` [Example 67, 4-(3-Bromoanilino)-7-dimethylaminopyrido[2,3-d]pyrimidine], the IC50 in data set [1] (setting [3]) was found to be 6100 nM.
Regarding `c1ccc(CNc2nc[nH]c3nccc2-3)cc1` [Example 74, 4-Benzylaminopyrrolo[2,3-d]pyrimidine], the IC50 in the data set with erbB-2, 3, 4 was greater than 1000 nM; in data set [1] (setting [3]), 11500 nM; in data set [1] (setting [4]) it was 55 nM.
Turning to `CN(C)c1ccc2ncnc(Nc3cccc(Br)c3)c2n1` [Example 8, 4-(3-Bromoanilino)-6-dimethylaminopyrido[3,2-d]pyrimidine], the IC50 in the data set on erbB-2, 3, 4 worked out at 71 nM; in data set [1] (setting [2]) it was 9.6 nM; in data set [1] (setting [4]) it was 9.6 nM; against EGF receptor it was 32 nM.
On to `Nc1cc2ncnc(Nc3cccc(C(F)(F)F)c3)c2cn1` [Example 31, 7-Amino-4-(3-trifluoromnethylanilino)pyrido[4,3-d]pyrimidine], for which the half-inhibitory concentration (IC50) in data set [1] (setting [2]) turned out to be 15 nM.
On the same count and under the same terms, to `Brc1cccc(Nc2ncnc3cnccc23)c1` [Example 56, 4-(3-Bromoanilino)pyrido[3,4-d]pyrimidine] belongs 110 nM.
On to `COc1cccc(CNc2ncnc3cc(N)ncc23)c1` [Example 45, 7-Amino-4-(3-methoxybenzylamino)pyrido[4,3-d]pyrimidine], for which the IC50 in data set [1] (setting [3]) is 2870 nM.
For `Nc1cc2ncnc(NCc3ccc(Cl)cc3)c2cn1` [Example 46, 7-Amino-4-(4-chlorobenzylamino)pyrido[4,3-d]pyrimidine Mesylate], the IC50 in data set [1] (setting [3]) was 1420 nM.
On the same count and under the same terms, to `Nc1cccc(Nc2ncnc3cc(N)ncc23)c1` [Example 17, 7-Amino-4-(3-aminoanilino)pyrido[4 3-d]pyrimidine] belongs 1550 nM.
The same measure, in the same setting: to `COc1ccccc1Nc1ncnc2cc(N)ncc12` [Example 16, 7-Amino-4-(2-methoxyanilino)pyrido[4,3-d]pyrimidine] belongs 3700 nM.
The same measure, in the same setting: with `Nc1cc2ncnc(NCc3cccc(C(F)(F)F)c3)c2cn1` [Example 51, 7-Amino-4-(3-trifluoromethylbenzylamino)pyrido[4,3-d]pyrimidine] the figure was 1950 nM.
Take `COc1ccc(Nc2ncnc3cc(N)ncc23)cc1` [Example 78, 7-Amino-4-(4-methoxyanilino)pyrido[4,3-d]pyrimidine]: the IC50 in data set [1] (setting [2]) stood at 670 nM.
As for `NNc1ncc2c(NCc3ccccc3)ncnc2n1` [Example 70, 4-Benzylamino-7-hydrazinopyrimido[4,5-d]pyrimidine], the IC50 is less than 10 nM in the data set on erbB-2, 3, 4; 473 nM in data set [1] (setting [2]); 11 nM in data set [1] (setting [4]).
As for `Clc1cc2c(Nc3cccc(Br)c3)ncnc2cn1` [Example 58, 4-(3-Bromoanilino)-6-chloropyrido[3,4-d]pyrimidine], the IC50 in data set [1] (setting [2]) was 40 nM.
The same measure, in the same setting: to `Fc1cc2c(Nc3cccc(Br)c3)ncnc2cn1` [Example 57, 4-(3-Bromoanilino)-6-fluoropyrido[3,4-d]pyrimidine] belongs 124 nM.
On to `CN(C)c1ccc(Nc2ncnc3cc(N)ncc23)cc1` [Example 20, 7-Amino-4-(4-dimethylaminoanilino)pyrido[4,3-d]pyrimidine], for which the IC50 in data set [1] (setting [3]) came to 4900 nM.
On the same count and under the same terms, with `Brc1cccc(Nc2ncnc3ncccc23)c1` [Example 63, 4-(3-Bromoanilino)pyrido[2,3-d]pyrimidine] the figure was 6100 nM.
With `c1ccc(CNc2ncnc3cccnc23)cc1` [Example 2, 4-Benzylaminopyrido[3,2-d]pyrimidine], half-maximal inhibition in data set [1] (IC50) was put at 3600 nM.
On to `CNc1ccc2ncnc(Nc3cccc(Br)c3)c2n1` [Example 7, 4-(3-Bromoanilino)-6-methylaminopyrido[3,2-d]pyrimidine], for which the IC50 is 100 nM with erbB-2, 3, 4; 3.1 nM in data set [1] (setting [2]); 3.1 nM in data set [1] (setting [4]); 20 nM against EGF receptor.
As for `Nc1cc2ncnc(NCc3ccccc3Br)c2cn1` [Example 47, 7-Amino-4-(2-bromobenzylamino)pyrido[4,3-d]pyrimidine], the concentration for half-maximal inhibition (IC50) in data set [1] (setting [3]) was 1670 nM.
Regarding `Fc1ccc2ncnc(Nc3cccc(Br)c3)c2n1` [Example 4, 4-(3-Bromoanilino)-6-fluoropyrido[3,2-d]pyrimidine], the half-inhibitory concentration (IC50) in the data set on erbB-2, 3, 4 was greater than 10000 nM; in data set [1] (setting [2]) it was 225 nM; in data set [1] (setting [4]) it was 225 nM; against EGF receptor, greater than 1000 nM.
Take `Nc1cc2ncnc(Nc3ccc(Br)cc3)c2cn1` [Example 28, 7-Amino-4-(4-bromoanilino)pyrido[4,3-d]pyrimidine]: the IC50 in data set [1] (setting [2]) turned out to be 94 nM.
Consider `Fc1ccc2c(Nc3cccc(Br)c3)ncnc2n1` [Example 64, 4-(3-Bromoanilino)-7-fluoropyrido[2,3-d]pyrimidine], for which, in data set [1] (setting [2]), the IC50 came to 11 nM.
Still for that read-out and setting: with `Nc1cc2ncnc(Nc3cccc(Cl)c3)c2cn1` [Example 24, 7-Amino-4-(3-chloroanilino)pyrido[4,3-d]pyrimidine] the figure was 123 nM.
Still for that read-out and setting: to `Nc1cc2ncnc(Nc3ccccc3)c2cn1` [Example 13, 7-Amino-4-anilinopyrido[4,3-d]pyrimidine] belongs 250 nM.
